Measurements from patent US20230065495A1, “MULTIPARTITE AND CIRCULARLY PERMUTED BETA-BARREL POLYPEPTIDES AND METHODS FOR THEIR USE” (University of Washington, priority 2020, published 2023).
Several values for one entry are separate records, joined by “and”; a condition that tells them apart may be missing. Identical values can stand only once. Marks after values point to notes of the source that are not given here. Ends that are not written are not given here.

T1: MBP-tagged split mFAP fragment m15 (β-strands 1-5 of mFAP2a)
T1 chain: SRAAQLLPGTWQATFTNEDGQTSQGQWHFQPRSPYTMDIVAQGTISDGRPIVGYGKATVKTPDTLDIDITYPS

T2: MBP-tagged split mFAP fragment m16 (β-strands 1-6 of mFAP2a)
T2 chain: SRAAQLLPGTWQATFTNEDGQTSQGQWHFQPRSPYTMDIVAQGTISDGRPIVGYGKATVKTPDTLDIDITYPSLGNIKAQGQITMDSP

T3: MBP-tagged split mFAP fragment m17 (β-strands 1-7 of mFAP2a)
T3 chain: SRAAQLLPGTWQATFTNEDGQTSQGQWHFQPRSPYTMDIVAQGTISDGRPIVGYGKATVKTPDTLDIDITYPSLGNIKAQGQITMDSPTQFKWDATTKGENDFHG

B1: MBP-tagged split mFAP fragment m12 (β-strands 1-2 of mFAP2a) (designed binder, not shown: large carriers)
chain: SRAAQLLPGTWQATFTNEDGQTSQGQWHFQPRSP
modifications: also: MBP-tagged (side and linker not given here)
B2: MBP-tagged split mFAP fragment m13 (β-strands 1-3 of mFAP2a) (designed binder, not shown: large carriers)
chain: SRAAQLLPGTWQATFTNEDGQTSQGQWHFQPRSPYTMDIVAQGTIS
modifications: also: MBP-tagged (side and linker not given here)
B3: MBP-tagged split mFAP fragment m14 (β-strands 1-4 of mFAP2a) (designed binder, not shown: large carriers)
chain: SRAAQLLPGTWQATFTNEDGQTSQGQWHFQPRSPYTMDIVAQGTISDGRPIVGYGKATVKTP
B4: MBP-tagged split mFAP fragment m38 (β-strands 3-8 of mFAP2a) (designed binder, not shown: large carriers)
chain: YTMDIVAQGTISDGRPIVGYGKATVKTPDTLDIDITYPSLGNIKAQGQITMDSPTQFKWDATTKGENDFHGRLTGTLQRQE
B5: MBP-tagged split mFAP fragment m48 (β-strands 4-8 of mFAP2a) (designed binder, not shown: large carriers)
chain: DGRPIVGYGKATVKTPDTLDIDITYPSLGNIKAQGQITMDSPTQFKWDATTKGENDFHGRLTGTLQRQE
B6: MBP-tagged split mFAP fragment m58 (β-strands 5-8 of mFAP2a) (designed binder, not shown: large carriers)
chain: DTLDIDITYPSLGNIKAQGQITMDSPTQFKWDATTKGENDFHGRLTGTLQRQE
modifications: also: MBP-tagged (side and linker not given here)
B7: cp35-34_mFAP2a_12: circularly permuted mFAP, SEQ ID NO: 341; brightest cpmFAP tested (protein)
chain: QEMDIVAQGTISDGRPIVGYGKATVKTPDTLDIDITYPSLGNIKAQGQITMDSPTQFKWDATTKGENDFHGRLTGTLQRTEEAKEATEEARRRGITTQAAQLLPGTWQATFTNEDGQTSQGQWHFQPRDG

What was measured:
[1] = cited from earlier work; for Extinction Coefficient / Reported Quantum Yield / λabs, peak absorbance wavelength / λem, peak emission wavelength / λex, peak excitation wavelength: previously reported value
[2] = target: B4; assay: split mFAP self-complementation, MBP-tagged fragments mixed equimolar with excess DFHBI-1T, fluorescence endpoint (n=3)
Protocol: (§1) To measure fluorescence intensities in complementation assays (FIG. 1b), fluorescence was measured on a Synergy Neo2 hybrid multi-mode reader (BioTek) in flat bottom, black polystyrene, non-binding surface 96-well half-area microplates (Corning 3686). Each split mFAP fragment covalently fused to maltose binding protein (MBP) was purified by large-scale protein purification in high salt Tev cleavage buffer⁹. In technical triplicate, 12.0 μL of each MBP-tagged split mFAP fragment was mixed to an equimolar concentration supplemented with 1.00 μL of 1.25 mM DFHBI-1T (Lucerna) at 25.0 μL final volumes per well. Fluorescence endpoints were measured using excitation wavelength λₑₓ=478 nm and emission wavelength λₑₘ=520 nm. In technical triplicate, background fluorescence endpoints of wells with identical chromophore concentrations lacking protein (substituted for equivalent volumes of high salt Tev cleavage buffer) were measured, and the mean fluorescence endpoints were subtracted from the mean fluorescence endpoints of samples containing protein (FIG. 1b).

[3] = target: B5; assay: as above
Protocol: as §1

[4] = target: B6; assay: as above
Protocol: as §1

[5] = target: B1; assay: β-barrel self-complementation assay, equimolar MBP-tagged fragments in excess DFHBI-1T
Protocol: as §1

[6] = target: B1; assay: fluorescence complementation titration: MBP-tagged m38 titrated into fixed MBP-tagged m12 in 25.0 µM DFHBI-1T; signal did not plateau, Kd is at least the highest titrant concentration
Protocol: (§2) Split mFAP fragment affinities (FIG. 1d,e,f,g) were estimated by preparing MBP-tagged split mFAP fragments by large-scale protein purification in high salt Tev cleavage buffer⁹, with 25.0 μM DFHBI-1T final concentration at 28.0 μL final volumes per well in flat bottom, black polystyrene, non-binding surface 96-well half-area microplates (Corning 3686). 3.00 μL of either 132 μM m12, 122 μM m14, 101 μM m16, or 84.9 μM m17 in high salt Tev cleavage buffer was mixed with 3.00 μL of 150 μM DFHBI-1T in high salt Tev cleavage buffer. For each split mFAP fragment, 12.0 μL of the complementary split mFAP fragment in high salt Tev cleavage buffer (the titrant) was mixed in from eleven serial dilutions (\sqrt{10} dilution factor) starting from 422 μM m38, 33.0 μM m58, 348 μM m78, or 531 μM m8 stock solutions, respectively, including a twelfth condition without titrant. Fluorescence endpoints were measured on a Synergy Neo2 hybrid multi-mode reader (BioTek) using excitation wavelength λₑₓ=468 nm and emission wavelength λₑₘ=530 nm. For each titration, the fluorescence intensity of the condition without titrant was subtracted from the fluorescence intensities of samples containing titrant, then the background subtracted data was normalized from 0 to 1. […]

[7] = target: B1; assay: β-barrel self-complementation assay, equimolar MBP-tagged fragments in excess DFHBI-1T; reference is m1 with m28
Protocol: as §1

[8] = target: B2; assay: β-barrel self-complementation assay (fluorescence of DFHBI-1T)
Protocol: as §1

[9] = target: T1, MBP-tagged split mFAP fragment m15 …; assay: as above
Protocol: as §1

[10] = target: B3; assay: fluorescence complementation titration: MBP-tagged m58 titrated into fixed MBP-tagged m14 in 25.0 µM DFHBI-1T; signal did not plateau, Kd is at least the highest titrant concentration
Protocol: as §2

[11] = target: T2, MBP-tagged split mFAP fragment m16 …; assay: fluorescence complementation titration: MBP-tagged m78 titrated into fixed MBP-tagged m16 in 25.0 µM DFHBI-1T; signal did not plateau, Kd is at least the highest titrant concentration
Protocol: as §2

[12] = target: T3, MBP-tagged split mFAP fragment m17 …; assay: fluorescence complementation titration: MBP-tagged m8 titrated into fixed MBP-tagged m17 in 25.0 µM DFHBI-1T; signal did not plateau, Kd is at least the highest titrant concentration
Protocol: as §2

[13] = cpmFAP fluorescence intensity assay; assay type: biochemical; details: equimolar concentration, excess DFHBI-1T
Protocol: To measure the fluorescence intensities of cpmFAPs (FIG. 4b,d), fluorescence endpoints were measured on a Synergy Neo2™ hybrid multi-mode reader (BioTek) in flat bottom, black polystyrene, non-binding surface 96-well microplates (Corning 3650) or half-area microplates (Corning 3686). […]

Cc1cc2cc3cc(C)c(N)cc3nc2cc1N.Cl [Acridine Yellow G]
quantum yield value of reference dye ([1]; in methanol): 0.57

CC1=NC(=Cc2cc(F)c(O)c(F)c2)C(=O)N1C [DFHBI, 3,5-difluoro-4-hydroxybenzylidene imidazolinone]
Absolute Quantum Yield ([1]; marked previously reported value): 0.001^#
Extinction Coefficient [1]: 30,100^¶ M^−1, cm^−1 and 31,935^# M^−1, cm^−1
Reported Quantum Yield [1]: 0.0007^¶
λabs, peak absorbance wavelength [1]: 418^¶ nm
λem, peak emission wavelength [1]: 489^¶ nm
λex, peak excitation wavelength [1]: 423^¶ nm

CC1=N/C(=C\c2cc(F)c(O)c(F)c2)C(=O)N1CC(F)(F)F [DFHBI-1T, (Z)-4-(3,5-difluoro-4-hydroxybenzylidene)-2-methyl-1-(2,2,2-trifluoroethyl)-1H-imidazol-5(4H)-one]
Extinction Coefficient [1]: 35,400^¶ M^−1, cm^−1
Reported Quantum Yield [1]: 0.00098^¶
λabs, peak absorbance wavelength [1]: 422^¶ nm
λem, peak emission wavelength [1]: 495^¶ nm
λex, peak excitation wavelength [1]: 426^¶ nm

B1
binding result [2]: binds

B2
binding result [3]: binds

B3
binding result [4]: binds

B4
mean fluorescence intensity over mean background fluorescence intensity (fold) [5]: 7.34 fold
Kd [6]: ≥ 281 µM
background-subtracted mean fluorescence intensity relative to the m1 and m28 combination (fold) [7]: 184 fold

B5
binding result [8]: binds

LGNIKAQGQITMDSPTQFKWDATTKGENDFHGRLTGTLQRQE (designed binder, not shown: large carriers, also: MBP tag fused, side and linker not given here) [MBP-tagged split mFAP fragment m68 (β-strands 6-8 of mFAP2a)]
binding result [9]: binds

B6
Kd [10]: ≥ 22 µM

TQFKWDATTKGENDFHGRLTGTLQRQE (designed binder, not shown: large carriers, also: MBP tag fused, side and linker not given here) [MBP-tagged split mFAP fragment m78 (β-strands 7-8 of mFAP2a)]
Kd [11]: ≥ 232 µM

RLTGTLQRQE (designed binder, not shown: large carriers, also: MBP tag fused, side and linker not given here) [MBP-tagged split mFAP fragment m8 (β-strand 8 of mFAP2a)]
Kd [12]: ≥ 354 µM

B7
fluorescence intensity relative to mFAP2a [13]: ~93%
